Values quoted from earlier work in paper PMC9410468 (Marine Drugs, 2022).

Tested on: rats
Settings: rat, in vivo; cited from earlier work
Excerpt: In the mammalian brain, the medial habenula (MHB) expresses high nAChR levels. Recently, α3-containing nAChRs present in the medial habenula have attracted substantial attention because of their potential role in influencing nicotine addiction. In addition, recent studies have shown that the gene polymorphism of the α3 and β4 subunits in vivo are related to nicotine addiction and drug abuse. The α3β4 nAChR subtype is mainly located in the MHB, […] (IPN), and fasciculus retroflexus (FR) of the rat brain. In addition, it is also expres ...

## AT-1001
  effect on nicotine self-administration (in words): reduce nicotine self-administration in rats
